Biological target: T1, human OX2R (Homo sapiens, UniProt O43614)
T1 construct: expressed in transfected cells; host or cells: CHO (Chinese hamster ovary) cells grown under G418 selection
T1 sequence (O43614 1-444): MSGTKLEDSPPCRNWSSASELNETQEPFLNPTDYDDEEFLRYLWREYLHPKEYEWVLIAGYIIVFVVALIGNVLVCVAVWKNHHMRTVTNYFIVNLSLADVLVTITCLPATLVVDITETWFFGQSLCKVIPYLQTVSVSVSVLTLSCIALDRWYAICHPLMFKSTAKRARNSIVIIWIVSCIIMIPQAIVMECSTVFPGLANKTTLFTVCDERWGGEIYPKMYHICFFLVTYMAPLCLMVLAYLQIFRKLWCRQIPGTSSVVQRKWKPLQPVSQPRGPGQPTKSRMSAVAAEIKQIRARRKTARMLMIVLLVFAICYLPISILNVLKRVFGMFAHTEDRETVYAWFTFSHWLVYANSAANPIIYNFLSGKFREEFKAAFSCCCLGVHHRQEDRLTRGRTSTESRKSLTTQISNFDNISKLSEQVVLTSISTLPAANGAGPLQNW
Experiment: IPOne (IP-1 accumulation) assay in CHO cells expressing human OX2R
Type: cell-based
Details: for EC50: CHO cells expressing human OX2R, IP-One assay, 2 h incubation, four parameter logistic fit, read-out: OX2R Potency, EC50; for % of maximum agonist effect (relative to Orexin A): percent effect vs mean max effect of a reference compound at 1 uM (100% activity vs Orexin A), human OX2R
Outline: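 CHO cells stably expressing human OX2R, grown in Iscove's modified DMEM with 10% FBS; agonist-driven IP-1 accumulation via the Gαq pathway measured by HTRF (D2/AB-cryptate detection after lysis). EC50 taken as the inflection point of a four-parameter logistic fit.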

EC50	% of maximum agonist effect (relative to Orexin A)	Structure (SMILES)
0.0226 µM	101.0%	CC[C@H](CCC(F)F)NC(=O)N(CC)[C@@H](c1cc(-c2cn3cc(C)nc3c(OC)n2)c(OC)cn1)C(F)(F)F [Example 6-1, 3-((R)-6,6-difluorohexan-3-yl)-1-ethyl-1-((S)-2,2,2-trifluoro-1-(5-methoxy-4-(8-methoxy-2-methylimidazo[1,2-a]pyrazin-6-yl)pyridin-2-yl)ethyl)urea]
0.0081 µM	100.1%	CC[C@H](CC(F)(F)F)NC(=O)N(CC)C(c1cc(-c2cn3ccnc3c(OC)n2)c(OC)cn1)C(F)(F)F (stereo partly drawn) [Example 6-2, 1-ethyl-1-(2,2,2-trifluoro-1-(5-methoxy-4-(8-methoxyimidazo[1,2-a]pyrazin-6-yl)pyridin-2-yl)ethyl)-3-((R)-1,1,1-trifluoropentan-3-yl)urea]
0.0136 µM	100.2%	CCN(C(=O)NC(CC(F)(F)F)C1CC1)C(c1cc(-c2cn3ccnc3c(OC)n2)c(OC)cn1)C(F)(F)F (stereo not shown) [Example 6-3, 3-(1-cyclopropyl-3,3,3-trifluoropropyl)-1-ethyl-1-(2,2,2-trifluoro-1-(5-methoxy-4-(8-methoxyimidazo[1,2-a]pyrazin-6-yl)pyridin-2-yl)ethyl)urea]
0.016 µM	100.3%	CCN(C(=O)NC(CCCF)C1CC1)[C@@H](c1cc(-c2cn3cc(C)nc3c(OC)n2)c(OC)cn1)C(F)(F)F (stereo partly drawn) [Example 6-4, 3-(1-cyclopropyl-4-fluorobutyl)-1-ethyl-1-((S)-2,2,2-trifluoro-1-(5-methoxy-4-(8-methoxy-2-methylimidazo[1,2-a]pyrazin-6-yl)pyridin-2-yl)ethyl)urea]
0.0189 µM	100.0%	CCC(/C=C/C(F)(F)F)NC(=O)N(CC)[C@@H](c1cc(-c2cn3cc(C)nc3c(OC)n2)c(OC)cn1)C(F)(F)F (stereo partly drawn) [Example 6-5, 1-ethyl-1-((S)-2,2,2-trifluoro-1-(5-methoxy-4-(8-methoxy-2-methylimidazo[1,2-a]pyrazin-6-yl)pyridin-2-yl)ethyl)-3-((E)-6,6,6-trifluorohex-4-en-3-yl)urea]
0.0714 µM	101.5%	CCC(NC(=O)N(CC)[C@@H](c1cc(-c2cn3cc(C)nc3c(OC)n2)c(OC)cn1)C(F)(F)F)C1CC1C(F)(F)F (stereo partly drawn) [Example 6-6, 1-ethyl-1-((S)-2,2,2-trifluoro-1-(5-methoxy-4-(8-methoxy-2-methylimidazo[1,2-a]pyrazin-6-yl)pyridin-2-yl)ethyl)-3-(1-(2-(trifluoromethyl)cyclopropyl)propyl)urea]
0.0085 µM	100.9%	CCN(C(=O)N[C@@H](CCC(F)F)C1CC1)[C@@H](c1cc(-c2cn3cc(C)nc3c(OC)n2)c(OC)cn1)C(F)(F)F [Example 6-7, 3-((S)-1-cyclopropyl-4,4-difluorobutyl)-1-ethyl-1-((S)-2,2,2-trifluoro-1-(5-methoxy-4-(8-methoxy-2-methylimidazo[1,2-a]pyrazin-6-yl)pyridin-2-yl)ethyl)urea]
0.0293 µM	96.8%	CC[C@H](CCC(F)(F)F)NC(=O)N(CC)[C@H](C)c1cccc(-c2cc(OC(F)F)c3nccn3c2)c1 [Example 7-1, 1-((R)-1-(3-(8-(difluoromethoxy)imidazo[1,2-a]pyridin-6-yl)phenyl)ethyl)-1-ethyl-3-((R)-6,6,6-trifluorohexan-3-yl)urea]
0.396 µM	100.4%	CCC(CCC(F)(F)F)NC(=O)N(CC)[C@H](C)c1cccc(-c2cn3ccnc3cc2OC)c1 (stereo partly drawn) [Example 7-2, 1-ethyl-1-((R)-1-(3-(7-methoxyimidazo[1,2-a]pyridin-6-yl)phenyl)ethyl)-3-(6,6,6-trifluorohexan-3-yl)urea]
0.491 µM	86.1%	CC[C@H](CCC(F)(F)F)NC(=O)N(CC)[C@H](C)c1cccc(-c2cc(C(F)F)c3nccn3c2)c1 [Example 7-3, 1-((R)-1-(3-(8-(difluoromethyl)imidazo[1,2-a]pyridin-6-yl)phenyl)ethyl)-1-ethyl-3-((R)-6,6,6-trifluorohexan-3-yl)urea]
0.595 µM	97.8%	CC[C@H](CCC(F)(F)F)NC(=O)N(CC)[C@H](C)c1cccc(-c2cc(COC)c3nccn3c2)c1 [Example 7-4, 1-ethyl-1-((R)-1-(3-(8-(methoxymethyl)imidazo[1,2-a]pyridin-6-yl)phenyl)ethyl)-3-((R)-6,6,6-trifluorohexan-3-yl)urea]
0.851 µM	93.7%	CC[C@H](CCC(F)(F)F)NC(=O)N(CC)[C@H](C)c1cccc(-c2cc(Cl)n3nccc3c2)c1 [Example 7-5, 1-((R)-1-(3-(7-chloropyrazolo[1,5-a]pyridin-5-yl)phenyl)ethyl)-1-ethyl-3-((R)-6,6,6-trifluorohexan-3-yl)urea]
1.41 µM	100.8%	CCC(CCC(F)(F)F)NC(=O)N(CC)[C@H](C)c1cccc(-c2cn3ccnc3cc2COC)c1 (stereo partly drawn) [Example 7-6, 1-ethyl-1-((R)-1-(3-(7-(methoxymethyl)imidazo[1,2-a]pyridin-6-yl)phenyl)ethyl)-3-(6,6,6-trifluorohexan-3-yl)urea]
0.211 µM	96.1%	CC[C@H](CCC(F)(F)F)NC(=O)N(CC)[C@H](C)c1cccc(-c2cn3ccnc3c(SC)n2)c1 [Example 8-1, 1-ethyl-1-((R)-1-(3-(8-(methylthio)imidazo[1,2-a]pyrazin-6-yl)phenyl)ethyl)-3-((R)-6,6,6-trifluorohexan-3-yl)urea]
0.0065 µM	97.7%	CCOc1cc(-c2cccc([C@@H](C)N(CC)C(=O)N[C@H](CC)CCC(F)(F)F)c2)cn2ccnc12 [Example 8-2, 1-((R)-1-(3-(8-ethoxyimidazo[1,2-a]pyridin-6-yl)phenyl)ethyl)-1-ethyl-3-((R)-6,6,6-trifluorohexan-3-yl)urea]
0.0104 µM	96.6%	CC[C@H](CCC(F)(F)F)NC(=O)N(CC)[C@H](C)c1ccc(OC)c(-c2cc(C)c3nccn3c2)c1 [Example 8-3, 1-ethyl-1-((R)-1-(4-methoxy-3-(8-methylimidazo[1,2-a]pyridin-6-yl)phenyl)ethyl)-3-((R)-6,6,6-trifluorohexan-3-yl)urea]
0.0259 µM	98.7%	CC[C@H](CCC(F)(F)F)NC(=O)N(CC)[C@H](C)c1ccc(OC)c(-c2cc(N)c3nccn3c2)c1 [Example 8-4, 1-((R)-1-(3-(8-aminoimidazo[1,2-a]pyridin-6-yl)-4-methoxyphenyl)ethyl)-1-ethyl-3-((R)-6,6,6-trifluorohexan-3-yl)urea]
0.0478 µM	96.1%	CC[C@H](CCC(F)(F)F)NC(=O)N(CC)[C@H](C)c1ccc(OC)c(-c2cnc3[nH]ccc3c2)c1 [Example 8-5, 1-ethyl-1-((R)-1-(4-methoxy-3-(1H-pyrrolo[2,3-b]pyridin-5-yl)phenyl)ethyl)-3-((R)-6,6,6-trifluorohexan-3-yl)urea]
0.18 µM	99.3%	CCC(CCC(F)(F)F)NC(=O)N(CC)[C@H](C)c1cccc(-c2cnc3nccn3c2)c1 (stereo partly drawn) [Example 8-7, 1-ethyl-1-((R)-1-(3-(imidazo[1,2-a]pyrimidin-6-yl)phenyl)ethyl)-3-(6,6,6-trifluorohexan-3-yl)urea]
0.248 µM	102.1%	CCC(CCC(F)(F)F)NC(=O)N(CC)[C@H](C)c1cccc(-c2cn3ccnc3cc2C)c1 (stereo partly drawn) [Example 8-8, 1-ethyl-1-((R)-1-(3-(7-methylimidazo[1,2-a]pyridin-6-yl)phenyl)ethyl)-3-(6,6,6-trifluorohexan-3-yl)urea]
0.0007 µM	99.7%	CCN(C(=O)N[C@@H](CCC(F)(F)F)C(F)(F)F)[C@H](C)c1cccc(-c2cc(OC)c3ncc(Cl)n3c2)c1 [Example 8-9, 1-((R)-1-(3-(3-chloro-8-methoxyimidazo[1,2-a]pyridin-6-yl)phenyl)ethyl)-1-ethyl-3-((S)-1,1,1,5,5,5-hexafluoropentan-2-yl)urea]
0.0015 µM	99.6%	CCN(C(=O)N[C@@H](CCC(F)(F)F)C(F)(F)F)[C@H](C)c1cccc(-c2cc(OC)c3nc(Cl)cn3c2)c1 [Example 8-10, 1-((R)-1-(3-(2-chloro-8-methoxyimidazo[1,2-a]pyridin-6-yl)phenyl)ethyl)-1-ethyl-3-((S)-1,1,1,5,5,5-hexafluoropentan-2-yl)urea]
0.002 µM	95.4%	CCN(C(=O)N[C@@H](CCC(F)(F)F)C(F)(F)F)[C@H](C)c1cccc(-c2cc(OC)c3ncnn3c2)c1 [Example 8-11, 1-ethyl-3-((S)-1,1,1,5,5,5-hexafluoropentan-2-yl)-1-((R)-1-(3-(8-methoxy-[1,2,4]triazolo[1,5-a]pyridin-6-yl)phenyl)ethyl)urea]

Source: patent publication US12692262B2, “Substituted ureas as orexin receptor agonists” (Merck Sharp & Dohme LLC, priority 2020, dated 2026)
